Laboratory results as given in patent US12454531B2, “Substituted piperazine derivatives useful as T cell activators” (BRISTOL-MYERS SQUIBB COMPANY, priority 2019, dated 2025).

What follows are compounds tested against DGKα (Homo sapiens (Human), UniProt P23743) (assay: Assay 2: In Vitro DGK Inhibition Assays, Method B (DGKα ADPGLO)). Conditions: 150 μM ATP.
Format: biochemical
Description: Assay 2: In Vitro DGK Inhibition Assays—Method B
The DGKα and DGKζ reactions were performed using either extruded liposome (DGKα and DGKζ LIPGLO assays) or detergent/lipid micelle substrate (DGKα and DGKζ assays). The reactions were carried out in 50 mM MOPS pH 7.5, 100 mM NaCl, 10 mM MgCl2, 1 μM CaCl2), and 1 mM DTT (assay buffer). The reactions using a detergent/lipid micelle substrate also contained 50 mM octyl B-D-glucopyranoside. The lipid substrate concentrations were 11 mM PS and 1 mM DAG for the detergent/lipid micelle reactions. The lipid substrate concentrations were 2 mM PS, 0.25 mM DAG, and 2.75 mM PC for the extruded liposome reactions (5 mM total lipid). The reactions were carried out in 150 μM ATP. The enzyme concentrations for the DGKα and DGKζ were nM.
The compound inhibition studies were carried out as follows: 25 nL droplets of each test compound (top concentration 10 mM with 11 point, 3-fold dilution series for each compound) solubilized in DMSO were transferred to wells of a white 1536 well plate (Corning 3725). A 5 mL enzyme/lipid substrate solution at 2× final reaction concentration was prepared by combining 2.5 mL 4× enzyme solution (20 nM DGKα or DGKζ (prepared as described below) in assay buffer) and 2.5 mL of either 4× liposome or 4× detergent/lipid micelle solution (compositions described below) and incubated at room temperature for 10 minutes. Next, 1 μL 2× enzyme/lipid substrate solution was added to wells containing the test compound and reactions were initiated with the addition of 1 μL 300 uM ATP. The reactions were allowed to proceed for 2 hr, after which 2 μL Glo Reagent (Promega V9101) was added and incubated for 40 minutes. Next, 4 μL Kinase Detection Reagent was added and incubated for 30 minutes. Luminescence was recorded using an EnVision microplate reader. […] The compounds were evaluated at 11 concentrations to determine IC50.
The detergent/lipid micelle was prepared by combining 15 g phosphatidylserine (Avanti 840035P) and 1 g diacylglycerol (8008110) and dissolving into 150 mL chloroform in a 2 L round bottom flask. Chloroform was removed under high vacuum by rotary evaporation. The resulting colorless, tacky oil was resuspended in 400 mL 50 mM MOPS pH 7.5, 100 mM NaCl, 20 mM NaF, 10 mM MgCl2, 1 μM CaCl2), 1 mM DTT, and 200 mM octyl glucoside by vigorous mixing. The lipid/detergent solution was split into 5 mL aliquots and stored at −80° C.
The lipid composition was 5 mol % DAG (Avanti 8008110), 40 mol % PS (Avanti 840035P), and 55 mol % PC (Avanti 850457) at a total lipid concentration of […] for the liposome solution. The PC, DAG, and PS were dissolved in chloroform, combined, and dried in vacuo to a thin film. The lipids were hydrated to 20 mM in 50 mM MOPS pH 7.5, 100 mM NaCl, 5 mM MgCl2, and were freeze-thawed five times. The lipid suspension was extruded through a 100 nm polycarbonate filter 10-12 times. Dynamic light scattering was carried out to confirm liposome size (50-60 nm radius). The liposome preparation was stored at 4° C. for as long as four weeks.
Human MA-hDGKα-(S9-S727)-Ct-TVMV-His-pFBgate and full length human DGK-ζ-transcript variant-2-TVMV-His-pFBgate baculovirus samples were generated using the Bac-to-Bac baculovirus expression system (Invitrogen) according to the manufacturer's protocol (note: MA- in name of DGKα reagents indicates two extra amino acids added prior to Ser-9). The DNA used for expression of the DGK-α(9-727) and DGK-C have SEQ ID NOs: 5 and 3, respectively. […]

DGKα, sequence (P23743 other isoform, or with tags, fused parts or gaps): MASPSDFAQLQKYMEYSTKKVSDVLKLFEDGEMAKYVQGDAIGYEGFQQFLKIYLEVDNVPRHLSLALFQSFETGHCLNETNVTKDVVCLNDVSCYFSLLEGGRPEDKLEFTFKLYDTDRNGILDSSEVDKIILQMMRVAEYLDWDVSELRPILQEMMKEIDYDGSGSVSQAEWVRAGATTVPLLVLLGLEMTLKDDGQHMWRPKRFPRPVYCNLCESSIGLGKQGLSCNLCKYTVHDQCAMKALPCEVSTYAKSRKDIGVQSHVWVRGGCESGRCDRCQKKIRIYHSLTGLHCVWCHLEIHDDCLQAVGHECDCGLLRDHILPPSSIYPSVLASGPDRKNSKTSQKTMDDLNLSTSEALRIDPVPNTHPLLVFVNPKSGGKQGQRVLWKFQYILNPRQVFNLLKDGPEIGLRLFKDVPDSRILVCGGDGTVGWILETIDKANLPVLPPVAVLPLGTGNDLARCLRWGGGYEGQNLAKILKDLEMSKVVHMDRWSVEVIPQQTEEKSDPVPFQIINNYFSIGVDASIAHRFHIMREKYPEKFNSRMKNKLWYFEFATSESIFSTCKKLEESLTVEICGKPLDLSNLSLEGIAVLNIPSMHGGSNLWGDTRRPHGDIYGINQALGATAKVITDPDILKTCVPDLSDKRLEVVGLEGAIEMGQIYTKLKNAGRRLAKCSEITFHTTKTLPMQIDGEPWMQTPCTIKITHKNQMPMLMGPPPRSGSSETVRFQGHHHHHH

| Compound | IC50 |
| --- | --- |
| CC[C@H]1CN(C(C(=O)N2CCOCC2)c2ccc(C(F)(F)F)cc2)[C@H](CC)CN1c1nc(=O)n(C)c2ccc(C#N)nc12 (single isomer, unassigned) [Example 53] | 1970 nM |
| CC[C@H]1CN(C(C(=O)N2CCOCC2)c2ccc(C(F)(F)F)cc2)[C@H](CC)CN1c1nc(=O)n(C)c2ccc(C#N)nc12 (single isomer, unassigned) [Example 54] | 260 nM |
| CC[C@H]1CN(C(C(=O)NCCOC)c2ccc(C(F)(F)F)cc2)[C@H](CC)CN1c1nc(=O)n(C)c2ccc(C#N)nc12 (single isomer, unassigned) [Example 56] | 7500 nM |
